Publication PMC5504357, “Antifungal Potential of Copper(II), Manganese(II) and Silver(I) 1,10-Phenanthroline Chelates Against Multidrug-Resistant Fungal Species Forming the Candida haemulonii Complex: Impact on the Planktonic and Biofilm Lifestyles” (Frontiers in Microbiology, 2017)
Read-outs that look alike come from different tables or passages of the source.

How the values were obtained:
Candida duobushaemulonii [1] = experiment: Planktonic growth, broth microdilution (CLSI M27-A3), MIC; assay type: cell-based; conditions: for GM-MIC: geometric mean of three C. duobushaemulonii isolates; for MIC: planktonic, 48 h, 37°C
Source text: (§1) Three clinical isolates of each species that form the C. haemulonii complex were used in this study: C. haemulonii (LIPCh4 from finger nail, LIPCh7 from toe nail, and LIPCh12 from blood), C. duobushaemulonii (LIPCh1 from finger nail, LIPCh6 from toe nail, and LIPCh8 from blood) and C. haemulonii var. vulnera (LIPCh5 from toe nail, LIPCh9 from urine, and LIPCh11 from blood) (Ramos et al., [2015]). The fungal isolates were identified by the automatized system VITEK® 2 and then characterized by ITS1-5.8S-ITS2 gene sequencing (Ramos et al., [2015]). Fungal cells were cultured in Sabouraud-dextrose medium under constant agitation (130 rpm) for 48 h at 37°C. Human lung adenocarcinoma A549 cells were maintained in culture flasks containing DMEM medium supplemented with 10% fetal bovine serum at 37°C in an atmosphere of 5% CO2.
(§2) Susceptibility profile assays were performed in accordance with the broth microdilution protocol described in the document M27-A3 published by the Clinical and Laboratory Standards Institutes (CLSI, [2008]). Samples of the test chelates were dissolved in DMSO (500 μL) and then serially diluted in a 96-well plate containing RPMI 1640 (Sigma-Aldrich, USA) to give the concentration range of 0.0625-32 mg/L. Aqueous solutions of the metal-free phen ligand and the simple metal salts, MnCl2, CuCl2, and AgNO3, were also screened over the same concentration range. Caspofungin (Sigma-Aldrich) was used as a classical antifungal agent able to block the growth of all clinical isolates of C. haemulonii species as previously reported by our research group (Ramos et al., [2015]). Water dilutions containing DMSO concentrations corresponding to those used to prepare the drug solutions were assessed in parallel. Untreated and compound-treated fungal cells were incubated at 37°C for 48 h and the minimal inhibitory concentration (MIC) was established as the lowest compound concentration where no cellular growth could be detected by visual inspection in accordance to the CLSI recommendation. The geometric mean of the MIC values (GM-MIC) of each compound against all the fungal isolates was calculated using the software, Microsoft Office Excel 2013.

[2] = test system: Candida haemulonii var. vulnera; experiment: as above; assay type: cell-based; conditions: for GM-MIC: geometric mean of three C. haemulonii var. vulnera isolates; for MIC: planktonic, 48 h, 37°C
Source text: as §1, §2

Candida haemulonii [3] = experiment: as above; assay type: cell-based; conditions: for GM-MIC: geometric mean of three C. haemulonii isolates; for MIC: planktonic, 48 h, 37°C
Source text: as §1, §2

C. haemulonii complex = experiment: Planktonic growth, overall across all nine isolates; assay type: cell-based, Candida haemulonii complex; conditions: geometric mean across all nine strains; for MIC: in μM, read-out: Overall GM-MIC
Source text: as §1, §2

A549 cells = experiment: Mammalian cell toxicity (MTT assay) and selectivity index; assay type: cell-based, Human
Source text: as §1
The cytotoxicity was evaluated using the MTT [3-(4,5-dimethylthiazol-2-yl)-2,5-diphenyl tetrazolium bromide] (Sigma-Aldrich) assay (Mosmann, [1983]). A549 cells (10^4) were seeded into tissue culture plates (TPP, Switzerland) and cultured for 24 h at 37°C in a 5% CO2 in order to obtain cellular confluence. The wells were then washed twice with DMEM to remove non-adherent cells and the test compounds were added (in concentrations ranging from 0.0313 to 512 μg/mL) to plates containing DMEM, followed by a 48 h incubation period under the same conditions mentioned above. The cellular viability was evaluated by adding MTT to each well and incubating the plates in the dark for 3 h, allowing the viable cells containing active mitochondrial dehydrogenase enzymes to metabolize MTT-tetrazolium salt into purple formazan. The formazan crystals were then dissolved in DMSO (100 μL) and the absorbance (450 nm) measured using a Thermomax Molecular Device microplate reader. The concentration capable of reducing cellular viability by 50% (CC50) was calculated, and the selectivity index (SI) determined using the following equation: A549 CC50/C. haemulonii complex GM-MIC.

Candida duobushaemulonii [4] = experiment: Biofilm-growing cells, XTT assay, bMIC; assay type: cell-based; conditions: for GM-bMIC: geometric mean, C. duobushaemulonii isolates; for bMIC: mature biofilm, 48 h, 50% inhibition of metabolic activity
Procedure: (§3) The effect of the compounds on biofilm-growing cells was determined using the previously described microtiter-based technique (Ramage et al., [2001]). The fungi (10^6 yeast cells) were incubated for 48 h at 37°C in 96-well polystyrene microtiter plates (Corning®, Corning Incorporated, USA) containing Sabouraud-dextrose broth to accommodate biofilm formation. Following biofilm formation, the culture medium was aspirated and non-adherent cells removed by thoroughly washing the wells three times with sterile PBS (0.15 M NaCl, 0.01 M phosphate buffer, pH 7.2). Afterwards, the compounds, at the same concentrations used in the planktonic assays, were added to the wells, and the plates were incubated for further 48 h at 37°C. The metabolic activity was then evaluated using a colorimetric assay that measures the metabolic reduction of 2,3-bis (2-methoxy-4-nitro-5-sulfophenyl)-5-[(phenylamino) carbonyl]-2H-tetrazolium hydroxide (XTT; Sigma-Aldrich) to a water-soluble, brown formazan product (Peeters et al., [2008]). The biofilm MIC (bMIC) for each compound was established as the minimal concentration capable of inhibiting 50% of metabolic activity when compared to compound-free wells (Ziccardi et al., [2015]).

[5] = test system: Candida haemulonii var. vulnera; experiment: Biofilm-growing cells, XTT assay, bMIC; assay type: cell-based; conditions: for GM-bMIC: geometric mean, C. haemulonii var. vulnera isolates; for bMIC: mature biofilm, 48 h, 50% inhibition of metabolic activity
Procedure: as §3

Candida haemulonii [6] = experiment: Biofilm-growing cells, XTT assay, bMIC; assay type: cell-based; conditions: for GM-bMIC: geometric mean, C. haemulonii isolates, values marked * do not include LIP Ch4 (>512); for bMIC: mature biofilm, 48 h, 50% inhibition of metabolic activity
Procedure: as §3

[7] = test system: Candida haemulonii complex; experiment: Biofilm-growing cells, overall across isolates; assay type: cell-based; conditions: geometric mean across strains, values marked * do not include LIP Ch4 (>512)
Procedure: as §3

| SMILES | GM-MIC (Candida duobushaemulonii [1]) [µg/mL] | MIC (Candida duobushaemulonii [1]; isolate LIP Ch1) [µg/mL] | MIC (Candida duobushaemulonii [1]; isolate LIP Ch6) [µg/mL] | MIC (Candida duobushaemulonii [1]; isolate LIP Ch8) [µg/mL] | GM-MIC [2] [µg/mL] | MIC ([2]; isolate LIP Ch5) [µg/mL] | MIC ([2]; isolate LIP Ch9) [µg/mL] | MIC ([2]; isolate LIP Ch11) [µg/mL] | GM-MIC (Candida haemulonii [3]) [µg/mL] | MIC (Candida haemulonii [3]; isolate LIP Ch4) [µg/mL] | MIC (Candida haemulonii [3]; isolate LIP Ch7) [µg/mL] | MIC (Candida haemulonii [3]; isolate LIP Ch12) [µg/mL] | Overall GM-MIC (C. haemulonii complex) [µg/mL] | MIC (C. haemulonii complex) [µM] | GM-bMIC (Candida duobushaemulonii [4]) [mg/L] | bMIC (Candida duobushaemulonii [4]; isolate LIP Ch1) [mg/L] | bMIC (Candida duobushaemulonii [4]; isolate LIP Ch6) [mg/L] | bMIC (Candida duobushaemulonii [4]; isolate LIP Ch8) [mg/L] | GM-bMIC [5] [mg/L] | bMIC ([5]; isolate LIP Ch5) [mg/L] | further results |
| --- | --- | --- | --- | --- | --- | --- | --- | --- | --- | --- | --- | --- | --- | --- | --- | --- | --- | --- | --- | --- | --- |
| O.O.O=C([O-])c1ccccc1C(=O)[O-].[Mn+2].c1cnc2c(c1)ccc1cccnc12 [compound 8, [Mn(ph)(phen)(H2O)2]] | 5.04 | 8 | 4 | 4 | 4 | 4 | 4 | 4 | 5.04 | 8 | 4 | 4 | 4.67 | 10.71 | 10.08 | 16 | 8 | 8 | 16 | 32 | A549 (CC50) (A549 cells): 234.51 µg/mL; bMIC ([5]; isolate LIP Ch9): 16 mg/L; bMIC ([5]; isolate LIP Ch13): 8 mg/L; GM-bMIC (Candida haemulonii [6]): 8^* mg/L; bMIC (Candida haemulonii [6]; isolate LIP Ch4): >512 mg/L; bMIC (Candida haemulonii [6]; isolate LIP Ch7): 4 mg/L; bMIC (Candida haemulonii [6]; isolate LIP Ch14): 16 mg/L; Overall GM-bMIC ([7]; in μM): 25.98 µM; Overall GM-bMIC [7]: 11.31 mg/L |
| O.O.O.O.O.O=C([O-])c1ccccc1C(=O)[O-].[Mn+2].c1cnc2c(c1)ccc1cccnc12.c1cnc2c(c1)ccc1cccnc12 [compound 9, [Mn(ph)(phen)2(H2O)].4H2O] | 2 | 2 | 2 | 2 | 2 | 2 | 2 | 2 | 2 | 2 | 2 | 2 | 2 | 2.98 | 5.04 | 16 | 4 | 2 | 6.35 | 16 | A549 (CC50) (A549 cells): 259.34 µg/mL; bMIC ([5]; isolate LIP Ch9): 4 mg/L; bMIC ([5]; isolate LIP Ch13): 4 mg/L; GM-bMIC (Candida haemulonii [6]): 25.40 mg/L; bMIC (Candida haemulonii [6]; isolate LIP Ch4): 512 mg/L; bMIC (Candida haemulonii [6]; isolate LIP Ch7): 2 mg/L; bMIC (Candida haemulonii [6]; isolate LIP Ch14): 16 mg/L; Overall GM-bMIC ([7]; in μM): 13.93 µM; Overall GM-bMIC [7]: 9.33 mg/L |
| O.O.O.O.O=C([O-])c1cccc(C(=O)[O-])c1.O=C([O-])c1cccc(C(=O)[O-])c1.[Mn+2].[Mn+2].c1cnc2c(c1)ccc1cccnc12.c1cnc2c(c1)ccc1cccnc12.c1cnc2c(c1)ccc1cccnc12 [compound 10, [Mn2(isoph)2(phen)3].4H2O] | 6.35 | 8 | 8 | 4 | 4 | 4 | 4 | 4 | 6.35 | 8 | 8 | 4 | 5.44 | 5.15 | 16 | 16 | 16 | 16 | 12.70 | 32 | A549 (CC50) (A549 cells; MTT, 48 h incubation): 255.87 µg/mL; bMIC ([5]; isolate LIP Ch9): 8 mg/L; bMIC ([5]; isolate LIP Ch13): 8 mg/L; GM-bMIC (Candida haemulonii [6]): 16^* mg/L; bMIC (Candida haemulonii [6]; isolate LIP Ch4): >512 mg/L; bMIC (Candida haemulonii [6]; isolate LIP Ch7): 8 mg/L; bMIC (Candida haemulonii [6]; isolate LIP Ch14): 32 mg/L; Overall GM-bMIC ([7]; in μM): 13.96 µM; Overall GM-bMIC [7]: 14.67 mg/L |
| O.O.O.O.O.O.O.O.O.O.O.O.O.O.O.O.O=C([O-])c1cccc(C(=O)[O-])c1.O=C([O-])c1cccc(C(=O)[O-])c1.[Mn+2].[Mn+2].c1cnc2c(c1)ccc1cccnc12.c1cnc2c(c1)ccc1cccnc12.c1cnc2c(c1)ccc1cccnc12.c1cnc2c(c1)ccc1cccnc12.c1cnc2c(c1)ccc1cccnc12 [compound 11, {[Mn(phen)2(H2O)2]}2(isoph)2(phen).12H2O] | 2.52 | 2 | 4 | 2 | 2.52 | 4 | 2 | 2 | 2.52 | 4 | 2 | 2 | 2.52 | 1.54 | 6.35 | 8 | 8 | 4 | 8 | 16 | A549 (CC50) (A549 cells; MTT, 48 h incubation): 251.76 µg/mL; bMIC ([5]; isolate LIP Ch9): 4 mg/L; bMIC ([5]; isolate LIP Ch13): 8 mg/L; GM-bMIC (Candida haemulonii [6]): 16^* mg/L; bMIC (Candida haemulonii [6]; isolate LIP Ch4): >512 mg/L; bMIC (Candida haemulonii [6]; isolate LIP Ch7): 8 mg/L; bMIC (Candida haemulonii [6]; isolate LIP Ch14): 32 mg/L; Overall GM-bMIC [7]: 8.72 mg/L |
| O.O.O.O.O.O=C([O-])c1ccc(C(=O)[O-])cc1.[Mn+2].c1cnc2c(c1)ccc1cccnc12.c1cnc2c(c1)ccc1cccnc12 [compound 12, [Mn(tereph)(phen)2].5H2O] | 4 | 4 | 4 | 4 | 4 | 4 | 4 | 4 | 4 | 4 | 4 | 4 | 4 | 5.96 | 16 | 32 | 8 | 16 | 5.04 | 2 | A549 (CC50) (A549 cells; MTT, 48 h incubation): 251.94 µg/mL; bMIC ([5]; isolate LIP Ch9): 4 mg/L; bMIC ([5]; isolate LIP Ch13): 16 mg/L; GM-bMIC (Candida haemulonii [6]): 16^* mg/L; bMIC (Candida haemulonii [6]; isolate LIP Ch4): >512 mg/L; bMIC (Candida haemulonii [6]; isolate LIP Ch7): 16 mg/L; bMIC (Candida haemulonii [6]; isolate LIP Ch14): 16 mg/L; Overall GM-bMIC ([7]; in μM): 15.48 µM; Overall GM-bMIC [7]: 10.37 mg/L |
